Here are results for 19 compounds from US10053443B2, “2-phenylbenzofuran derivatives, method for preparing the same and use of the same for treating inflammatory disease” (KOREA RESEARCH INSTITUTE OF BIOSCIENCE AND BIOTECHNOLOGY, priority 2014, dated 2018).

Series [1] relates to Raw 264.7 (ATCC TIB71) cells. The series is described as follows: Evaluation of cell survival rate of macrophages (MTT). Format: cell-based, mouse. The following applies: Raw 264.7, 10 μM, 24 hours. The protocol:
Raw 264.7 (ATCC TIB71) cells, the mouse derived macrophages', were inoculated in a 96-well plate containing DMEM (Dulbecco's modified Eagle medium; Welgene, Korea) supplemented with 10% FBS (Fetal Bovine Serum), 2 mM glutamine, penicillin (100 unit/ml), and streptomycin (100 μg/ml) at the density of 1×10^4 cells/well. The cells were cultured in 5% CO2 at 37° C. for 4 hours to attach the cells onto the plate. Next, the cells were treated with each sample at different concentrations, followed by further culture for 24 hours. To investigate the cell survival rate, 5 mg/ml of MTT (3-(4,5-dimethylthiazol-2-yl)-2,5-diphenyltetrazoliumbromide, Amresco, OH, USA) was distributed thereto (10 μl/well), followed by culture for 4 hours. Then, the supernatant was eliminated. Formazan reduced from MTT by mitochondria was dissolved in 100 μl of DMSO and then OD570 was measured. 0.2% DMSO was used for the negative control.

Series [2] concerns Nitrogen Oxide (NO) generation. Kind of series: Inhibition of nitrogen oxide (NO) generation in LPS-treated Raw 264.7 cells (Griess). It counts as cell-based, mouse. The settings on record: Raw 264.7, LPS 500 ng/ml, 24 hours. Here is the method: Raw 264.7 (ATCC TIB71) cells were inoculated in a 96-well plate containing the same medium as used in Experimental Example 1 at the density of 1×10^5 cells/well. The cells were cultured in 5% CO2 at 37° C. for 4 hours to attach the cells onto the plate. The cells were treated with each sample at different concentrations, followed by further culture for 1 hour. […] were treated thereto at the final concentration of 500 ng/ml, followed by further culture for 24 hours. 100 μl of the supernatant was taken and transferred in a new plate, which was mixed with Griess reagent (a mixture of 1% sulfanilamide, 0.1% N-[1-naphthyl]-ethylenediamine dihydrochloride, and 5% phosphoric acid), followed by reaction for 10 minutes. Then, OD540 was measured. NO generation was quantified by using the sodium nitrite standard curve prepared from […] dissolved in the same medium at different concentrations. Considering the NO generation of the inflammation induced macrophages as 100%, the NO generation inhibition rate was calculated and presented in Table 7.

Series [3] relates to interleukin-6 (IL-6) generation. The series is described as follows: Inhibition of interleukin-6 (IL-6) generation in LPS-treated Raw 264.7 cells (ELISA). Format: cell-based, mouse. The settings on record: Raw 264.7, LPS treated, read-out: Grades of IC50 on IL-6 generation. Here is the method:
Raw 264.7 cells were distributed by the same manner as described in Experimental Example <2-1>, and IL-6 included in the supernatant treated with each sample at different concentrations was measured by enzyme-linked immunosorbent assay (IL-6 ELISA kit, BD Bioscience, San Diego, Calif.).
(§1) Particularly, 10-fold diluted supernatant was distributed in a 96-well plate on which IL-6 antibody was attached, followed by adhesion for 2 hours. The supernatant remaining after the adhesion was washed with a washing buffer. The detection antibody and HRP were adhered on the washed plate for 1 hour. The remaining antibody was washed. Color development was induced by using TMB substrate. The reaction was terminated with sulfuric acid solution. Then, OD450 was measured. IL-6 in the supernatant was quantified by using the standard curve made with the standard IL-6 included in the kit. IL-6 suppression rate was calculated by measuring the same concentration that could inhibit IL-6 generation up to 50% in the LPS treated group and the results are shown in Table 8.
On the technique in general: In an ELISA, binding on a coated surface is turned into a signal by an enzyme label.

Series [4] deals with Tumor Necrosis Factor Alpha (TNF-alpha). Kind of series: Inhibition of TNF-alpha generation in LPS-treated Raw 264.7 cells (ELISA). It counts as cell-based. The settings on record: Mus musculus, RAW264.7; Raw 264.7, LPS treated; read-out: Grades of IC50 on TNF-alpha generation. The protocol:
Raw 264.7 cells were distributed by the same manner as described in Experimental Example <2-1>, which were treated with the samples selected due to their high NO and IL-6 suppressing effect at different concentrations. TNF-alpha included in the supernatant was measured by enzyme-linked immunosorbent assay (TNF-alpha ELISA kit, R&D Systems, MN, USA).
as §1, with “100-fold” for “10-fold”, “TNF-alpha” for “IL-6”, “9.” for “8.”

Like-named read-outs stand apart in the source and are kept apart here. Some results are limits rather than exact numbers.

In the case of `COc1ccc(-c2cc3cc(CCCO)cc(OC)c3o2)cc1OC` [Example 1, 3-[2-(3,4-dimethoxyphenyl)-7-methoxybenzofuran-5-yl]propane-1-ol], the “Grades of cell survival rate (%, in 10 μM)” value (“Grades … (%, in 10 μM)” for short) in series [1] was “A (A: 90<A≤100)”. Besides, the “Grades of NO generation inhibition rate (%)” value in series [2] is given as “D (D: 5<D≤15)”. The IC50 in series [3] (Mus musculus, RAW264.7) was 10 to 20 µM; in series [4], 5 to 10 µM.
As to `COc1ccc(-c2cc3cc(CCCO)cc(OC)c3o2)c(C)c1` [Example 2, 3-(7-methoxy-2-(4-methoxy-2-methylphenyl)benzofuran-5-yl)propane-1-ol], the “Grades … (%, in 10 μM)” value in series [1] was “A (A: 90<A≤100)”. In addition, the “Grades of NO generation inhibition rate (%)” value in series [2] is recorded as “A (A: 35<A≤100)”. The IC50 in series [3] (Mus musculus, RAW264.7) is not above 10 µM; in series [4], 3 to 5 µM.
On to `COc1cc(CCCO)cc2cc(-c3cccc(C)c3)oc12` [Example 3, 3-(7-methoxy-2-m-tolylbenzofuran-5-yl)propane-1-ol], for which the “Grades … (%, in 10 μM)” value in series [1] is “A (A: 90<A≤100)”. Also, the “Grades of NO generation inhibition rate (%)” value in series [2] is “A (A: 35<A≤100)”. The IC50 in series [3] (Mus musculus, RAW264.7) is 40 to 50 µM.
As for `COc1cccc(-c2cc3cc(CCCO)cc(OC)c3o2)c1` [Example 5, 3-(7-methoxy-2-(3-methoxyphenyl)benzofuran-5-yl)propane-1-ol], the “Grades … (%, in 10 μM)” value in series [1] is “A (A: 90<A≤100)”. For the same compound, in series [2], the “Grades of NO generation inhibition rate (%)” value is “C (C: 15<C≤25)”. In addition, the IC50 in series [3] (Mus musculus, RAW264.7) is 40 to 50 µM.
Take `COc1cc(CCCO)cc2cc(-c3cc(F)cc(F)c3)oc12` [Example 6, 3-[2-(3,5-difluorophenyl)-7-methoxybenzofuran-5-yl]propane-1-ol]: in series [1], the “Grades … (%, in 10 μM)” value is “A (A: 90<A≤100)”. The “Grades of NO generation inhibition rate (%)” value in series [2] is recorded as “B (B: 25<B≤35)”. Moreover, the IC50 in series [3] (Mus musculus, RAW264.7) lay within 10 to 20 µM; in series [4] it was 15 to 17 µM.
With `COc1ccc(-c2cc3cc(CCCO)cc(OC)c3o2)cc1` [Example 7, 3-(7-methoxy-2-(4-methoxyphenyl)benzofuran-5-yl)propane-1-ol], in series [1], the “Grades … (%, in 10 μM)” value is recorded as “A (A: 90<A≤100)”. Moreover, the “Grades of NO generation inhibition rate (%)” value in series [2] is “D (D: 5<D≤15)”. In series [3] (Mus musculus, RAW264.7), the IC50 lay within 40 to 50 µM.
`COc1cc(CCCO)cc2cc(-c3cccc(F)c3)oc12` [Example 8, 3-(2-(3-fluorophenyl)-7-methoxybenzofuran-5-yl)propane-1-ol]: the “Grades … (%, in 10 μM)” value in series [1] is given as “A (A: 90<A≤100)”. Also, the “Grades of NO generation inhibition rate (%)” value in series [2] is “C (C: 15<C≤25)”. Besides, the IC50 in series [3] (Mus musculus, RAW264.7) was 40 to 50 µM.
Turning to `COc1cc(CCCO)cc2cc(-c3ccc(N(C)C)cc3)oc12` [Example 9, 3-(2-(4-(dimethylamino)phenyl)-7-methoxybenzofuran-5-yl)propane-1-ol], the “Grades … (%, in 10 μM)” value in series [1] was “A (A: 90<A≤100)”. The “Grades of NO generation inhibition rate (%)” value in series [2] is “C (C: 15<C≤25)”. Further, the IC50 in series [3] (Mus musculus, RAW264.7) was in the range of 40 to 50 µM.
As to `COc1ccc(CCc2cc(CCCO)cc(OC)c2O)cc1OC` [Example 14, 2-(3,4-dimethoxyphenethyl)-4-(3-hydroxypropyl)-6-methoxyphenol], in series [1], the “Grades … (%, in 10 μM)” value is “C (C: 70<C≤80)”. For the same compound, the “Grades of NO generation inhibition rate (%)” value in series [2] was “C (C: 15<C≤25)”.
In the case of `COc1cc(CCCO)cc(CCc2ccc(C)cc2)c1O` [Example 16, 4-(3-hydroxypropyl)-2-methoxy-6-(4-methylpenethyl)phenol], the “Grades … (%, in 10 μM)” value in series [1] is “A (A: 90<A≤100)”. Also, in series [2], the “Grades of NO generation inhibition rate (%)” value is “C (C: 15<C≤25)”. Further, the IC50 in series [3] was in the range of 30 to 40 µM.
Take `COc1cccc(CCc2cc(CCCO)cc(OC)c2O)c1` [Example 17, 4-(3-hydroxypropyl)-2-methoxy-6-(3-methoxypenethyl)phenol]: the “Grades … (%, in 10 μM)” value in series [1] is given as “B (B: 80<B≤90)”. Further, the “Grades of NO generation inhibition rate (%)” value in series [2] is “C (C: 15<C≤25)”. For the same compound, in series [3], the IC50 is 40 to 50 µM.
Consider `COc1ccc(-c2cc3cc(CO)cc(OC)c3o2)cc1OC` [Example 18, [2-(3,4-dimethoxyphenyl)-7-methoxybenzofuran-5-yl]methanol], for which, in series [1], the “Grades … (%, in 10 μM)” value is reported as “A (A: 90<A≤100)”. In addition, the “Grades of NO generation inhibition rate (%)” value in series [2] was “C (C: 15<C≤25)”. For the same compound, the IC50 in series [3] (Mus musculus, RAW264.7) is 40 to 50 µM.
`COc1ccc(-c2cc3cc(CCO)cc(OC)c3o2)cc1OC` [Example 20, 2-[2-(3,4-dimethoxyphenyl)-7-methoxybenzofuran-5-yl]ethanol]: the “Grades … (%, in 10 μM)” value in series [1] is “B (B: 80<B≤90)”. Further, in series [2], the “Grades of NO generation inhibition rate (%)” value is recorded as “A (A: 35<A≤100)”. In series [3] (Mus musculus, RAW264.7), the IC50 was 20 to 30 µM.
In the case of `COc1cc(-c2cc3cc(CCCO)cc(OC)c3o2)ccc1O` [Example 22, 4-(5-(3-hydroxypropyl)-7-methoxybenzofuran-2-yl)-2-methoxyphenol], the “Grades … (%, in 10 μM)” value in series [1] is listed as “A (A: 90<A≤100)”. The “Grades of NO generation inhibition rate (%)” value in series [2] is listed as “A (A: 35<A≤100)”. For the same compound, the IC50 is not above 10 µM in series [3] (Mus musculus, RAW264.7) and 3 to 5 µM in series [4].
Consider `COc1ccc(-c2cc3cc(CCCO)cc(OC)c3o2)cc1O` [Example 23, 5-(5-(3-hydroxypropyl)-7-methoxybenzofuran-2-yl)-2-methoxyphenol], for which the “Grades … (%, in 10 μM)” value in series [1] was “B (B: 80<B≤90)”. Also, the “Grades of NO generation inhibition rate (%)” value in series [2] is “C (C: 15<C≤25)”. Moreover, the IC50 in series [3] (Mus musculus, RAW264.7) lay in the range of 40 to 50 µM.
As for `COc1cc(CCCO)cc2cc(-c3cc(O)cc(O)c3)oc12` [Example 24, 5-(5-(3-hydroxypropyl)-7-methoxybenzofuran-2-yl)benzene-1,3-diol], the “Grades … (%, in 10 μM)” value in series [1] is on record as “A (A: 90<A≤100)”. Also, in series [2], the “Grades of NO generation inhibition rate (%)” value is listed as “A (A: 35<A≤100)”. For the same compound, the IC50 lay within 10 to 20 µM in series [3] (Mus musculus, RAW264.7) and 5 to 10 µM in series [4].
With `COc1cc(-c2cc3cc(CCCO)cc(OC)c3o2)cc(OC)c1O` [Example 26, 4-(5-(3-hydroxypropyl)-7-methoxybenzofuran-2-yl)-2,6-dimethoxyphenol], in series [1], the “Grades … (%, in 10 μM)” value is “A (A: 90<A≤100)”. In addition, the “Grades of NO generation inhibition rate (%)” value in series [2] is reported as “A (A: 35<A≤100)”. In addition, the IC50 was not above 10 µM in series [3] (Mus musculus, RAW264.7) and 1 to 3 µM in series [4].
In the case of `COc1ccc(-c2cc3cc(CCCO)cc(O)c3o2)cc1OC` [Example 27, 2-(3,4-dimethoxyphenyl)-5-(3-hydroxypropyl)benzofuran-7-ol], in series [1], the “Grades … (%, in 10 μM)” value was “B (B: 80<B≤90)”. Besides, the “Grades of NO generation inhibition rate (%)” value in series [2] is recorded as “D (D: 5<D≤15)”. Also, in series [3] (Mus musculus, RAW264.7), the IC50 lay within 20 to 30 µM.
`COc1ccc(-c2cc3cc(CCCOC(C)=O)cc(OC)c3o2)cc1OC` [Example 28, 3-(2-(3,4-dimethoxyphenyl)-7-methoxybenzofuran-5-yl)propyl acetate]: the “Grades … (%, in 10 μM)” value in series [1] is reported as “A (A: 90<A≤100)”. Also, the “Grades of NO generation inhibition rate (%)” value in series [2] was “B (B: 25<B≤35)”. For the same compound, the IC50 was in the range of 20 to 30 µM in series [3] (Mus musculus, RAW264.7) and 1 to 3 µM in series [4].
